Patent US11951204B2, “Cell-penetrating peptides and composition including the same” (S-SKIN. CO., LTD., priority 2022, dated 2024)
“And” between values parts separate entries of the source, which are not always exact repeats. Equal values may be shown once. Ends that are not written are not given here.

What was measured:
[1] = Cytotoxicity assay of difunctional peptide (WST-1, microscopy); format: cell-based, human; conditions: human, HDF-N cells, HDF-N, read-out: cell proliferation rate / survival rate (WST-1); for viability at 24 h, 12.5 µM: 12.5 μM peptide; for viability at 24 h, 25 µM: 25 μM peptide; for viability at 24 h, 50 µM: 50 μM peptide; for viability at 24 h, 100 µM: 100 μM peptide
HDF-N = test: as above; format: cell-based, human; conditions: for change in the appearance of the cells (microscope): 12.5 μM to 100 μM
HDF-N cells = format: cell-based, human; conditions: for Cell viability(%): human, 24 h, 12.5 μM
Protocol: (§1) Cytotoxicity of the cell-penetrating multifunctional peptide according to Example 1 was checked. Specifically, HaCaT cells (human keratinocytes) were inoculated at a concentration of 1.5×10^4 cells/well into a 96-well plate and incubated for 24 hours. Then, the medium was removed, followed by washing once with PBS, and replaced with a serum-free medium. The cells were treated with Spep001 (SEQ ID NO: 1), Spep002 (SEQ ID NO: 8) or Spep003 (SEQ ID NO: 9) at a concentration of 0 μM, 25 μM, 50 μM, 100 μM or 200 μM and then further incubated for 24 hours. Herein, culture conditions were maintained at 37° C. with 5% CO2.
(§2) Also, at the time of completion of incubation, a WST-1 assay (Water Soluble Tetrazolium salt-1, EZ-assay kit, DoGenBio) was conducted. Specifically, 100 μL of a WST-1 solution was added to the well of cells after the completion of further incubation and then incubated for 3 hours. Thereafter, the absorbance at 450 nm was measured using a microplate spectrophotometer (Multiskan™ GO, thermo), and the result thereof is shown in FIG. 2B and Table 2 below.
HDF-N cells were treated with 12.5 μM KTTKS (SEQ ID NO: 5), Spep001-KTTKS (SEQ ID NO: 6) and pal-KTTKS which are peptides fabricated in Example 9. The appearance and proliferation rate of the cells were measured as in Example 3, and the results thereof are shown in FIG. 9A(i) to FIG. 9A(iv), FIG. 9B and Table 7 below.

[2] = tested on: collagen synthesis in HDF-N cells; test: Synthesis of collagen, PIP (procollagen Type 1C-peptide) ELISA; format: cell-based, human; conditions: 12.5 μM, 24 hours
Protocol: HDF-N cells were inoculated at a concentration of 1×10^4 cells/well into a 96-well plate and incubated for 24 hours. Then, the medium was removed, followed by washing twice with PBS, and replaced with a serum-free medium. Thereafter, 12.5 μM KTTKS (SEQ ID NO: 5), Spep001-KTTKS (SEQ ID NO: 6) and pal-KTTKS were added to each well and then incubated for 24 hours. Then, 10 μL of the cell culture fluid was obtained and centrifuged at 800 rpm for 5 minutes. Thereafter, the degree of synthesis of collagen was checked using a PIP (procollagen Type 1C-peptide) ELISA kit (MK101, Takara), and the result thereof is shown in FIG. 10 and Table 8 below.

[3] = Cytotoxicity assay (WST-1, microscopy) in HaCaT cells; format: cell-based, human; conditions: human, HaCaT cells (keratinocytes); for viability at 24 h, 25 µM / viability at 24 h, 50 µM / viability at 24 h, 100 µM / viability at 24 h, 200 µM: HaCaT, read-out: survival rate (WST-1); for viability at 24 h, 25 µM: 25 μM peptide; for viability at 24 h, 50 µM: 50 μM peptide; for viability at 24 h, 100 µM: 100 μM peptide; for viability at 24 h, 200 µM: 200 μM peptide; for viability at 24 h: at all concentrations (25-200 μM), read-out: survival rates of the HaCaT cells
Protocol: as §1
(§3) At the time of completion of further incubation, the appearance of the cells were imaged by a microscope, and the result thereof is shown in FIG. 2A(i) to FIG. 2A(xx).
as §2
(§4) Herein, all the result values are expressed in mean±standard deviation. The analysis result of each item was statistically analyzed by a 2-way analysis of variance (ANOVA) test. A Bonferroni post-test was conducted at a P value of *p<0.05 and **p<0.01 only when the significance was determined by ANOVA test. GraphPad prism 5.0.1 (GraphPad Software Inc., San Diego, CA, USA) was used as a statistical software program.

[4] = tested on: HaCaT cells (human keratinocytes); test: as above; format: cell-based; conditions: for cytotoxicity: HaCaT cells; for change in the appearance of the cells (microscope): HaCaT, all concentrations
Protocol: as §1, §3, §2, §4

[5] = Cytotoxicity assay (WST-1, microscopy) in HDF-N cells; format: cell-based, human; conditions: human, HDF-N cells (dermal fibroblasts, neonatal); for viability at 24 h, 25 µM / viability at 24 h, 50 µM / viability at 24 h, 100 µM / viability at 24 h, 200 µM: HDF-N, read-out: survival rate (WST-1); for viability at 24 h, 25 µM: 25 μM peptide; for viability at 24 h, 50 µM: 50 μM peptide; for viability at 24 h, 100 µM: 100 μM peptide; for viability at 24 h, 200 µM: 200 μM peptide; for viability at 24 h: at all concentrations (25-200 μM), read-out: survival rates of the HDF-N cells
Protocol: as §1, §2
(§5) The appearance of HDF-N (human dermal fibroblast-neonatal) cells were imaged by a microscope as in Example 3, and the result thereof is shown in FIG. 3A(i) to FIG. 3A(xx). However, the HDF-N cells were inoculated at a concentration of 1.0×10^4 cells/well into a 96-well plate.

[6] = tested on: HDF-N (human dermal fibroblast-neonatal) cells; test: as above; format: cell-based; conditions: for cytotoxicity: HDF-N cells; for change in the appearance of the cells (microscope): HDF-N, all concentrations
Protocol: as §1, §2, §5

Substance | viability at 24 h, 12.5 µM [1] [%] | viability at 24 h, 25 µM [1] [%] | viability at 24 h, 50 µM [1] [%] | viability at 24 h, 100 µM [1] [%] | change in the appearance of the cells (microscope) (HDF-N) | change in the appearance of the cells (microscope) (HDF-N cells) | viability at 24 h, 25 µM [3] [%] | viability at 24 h, 50 µM [3] [%] | viability at 24 h, 100 µM [3] [%] | viability at 24 h, 200 µM [3] [%] | viability at 24 h [3] [%] | cytotoxicity [4] | change in the appearance of the cells (microscope) [4] | viability at 24 h, 25 µM [5] [%] | viability at 24 h, 50 µM [5] [%] | viability at 24 h, 100 µM [5] [%] | viability at 24 h, 200 µM [5] [%] | viability at 24 h [5] [%] | cytotoxicity [6] | change in the appearance of the cells (microscope) [6] | other results
H-KTTKS-OH [KTTKS, reference compound] | 104 ± 13 | 107 ± 20.1 | 105 ± 4.28 | 119 ± 11.6 | no change in the appearance | no change in the appearance | – | – | – | – | – | – | – | – | – | – | – | – | – | – | Cell viability(%) (HDF-N cells): 110.58%; PIP (collagen in cell culture fluid) [2]: 203.24 ng/mL and 203.24 ± 10.74 ng/mL; amount of collagen synthesized based on the control [2]: 159.99%
KRRWRKIPKR [Spep002, KRRWRKIPKR] | – | – | – | – | – | – | 104.7 ± 0.17 | 103 ± 1.97 | 101 ± 1.97 | 99.01 ± 0.62 | ≥ 90 | do not express cytotoxicity | no change in the appearance | 102 ± 4.11 | 104.6 ± 0.75 | 108 ± 1.66 | 101 ± 2.44 | ≥ 90 | do not express cytotoxicity | no change in the appearance | –
KTTKSRLRLRQRRRR [KTTKS-Spep001, KTTKSRLRLRQRRRR] | 111 ± 8.6 | 120 ± 4.46 | 107 ± 7.61 | 94.1 ± 3.2 | no change in the appearance | – | – | – | – | – | – | – | – | – | – | – | – | – | – | – | cell proliferation (in words) (HDF-N; compared to control (0 μM)): maintained at a level similar to that of a control
RKRWLRKPRP [Spep003, RKRWLRKPRP] | – | – | – | – | – | – | 98.3 ± 4.45 | 98.6 ± 1.01 | 103 ± 0.6 | 99.9 ± 1.79 | ≥ 90 | do not express cytotoxicity | no change in the appearance | 118 ± 5.3 | 104 ± 1.71 | 108 ± 3.07 | 113.5 ± 0.59 | ≥ 90 | do not express cytotoxicity | no change in the appearance | –
RLRLRQRRRR [Spep001, RLRLRQRRRR] | – | – | – | – | – | – | 103 ± 1.62 | 103 ± 2.21 | 106 ± 2.23 | 110 ± 7.48 | ≥ 90 | do not express cytotoxicity | no change in the appearance | 93.39 ± 0.66 | 101 ± 2.71 | 95 ± 1.53 | 94.5 ± 2.41 | ≥ 90 | do not express cytotoxicity | no change in the appearance | –
RLRLRQRRRRKTTKS [Spep001-KTTKS, RLRLRQRRRRKTTKS] | 167 ± 13.4 | 148 ± 8.42 | 104 ± 3.16 | 106 ± 11.4 | no change in the appearance | no change in the appearance | – | – | – | – | – | – | – | – | – | – | – | – | – | – | cell proliferation rate / survival rate (WST-1) (HDF-N; HDF-N, 12.5 μM peptide): 167.45±13.38%; Cell viability(%) (HDF-N cells): 215.58%
